US12239643B2, “Therapeutic agent for inflammatory diseases, autoimmune diseases, fibrotic diseases, and cancer diseases” (MEIJI SEIKA PHARMA CO., LTD., priority 2018, dated 2025)

Tested on: PDE4
Assay: Evaluation of PDE4 inhibitory activity, scintillation proximity assay
Type: biochemical
Conditions: scintillation proximity assay; class symbols of Evaluation 1; read-out: PDE4 Inhibitory Activity (concentration for the inhibition rate of 50%, IC50), Evaluation 1
Procedure: The BDE4 inhibitory activity was measured using scintillation proximity assay (SPA) as follows. First, a test compound dissolved in dimethyl sulfoxide was diluted 1:10 in reaction buffer solution which contained 50 mM of Tris-HCl with pH 7.4, 8.3 mM of MgCl2, 1.7 mM of EGTA, and 3 mg/mL of bovine serum albumin (BSA). Then, 10 μL of the diluted solution was added in a 96-well assay plate. Moreover, 50 μL of PDE4 (enzyme preparation) diluted 1:375 in the reaction buffer solution was added, and then 40 μL of [2,8-^3H]-adenosine-3′,5′-cyclic phosphate triethylammonium salt diluted 1:1000 in the reaction buffer solution was added. The mixture was allowed to stand at room temperature for 120 minutes. Thereafter, […] of RNA binding YSi-SPA beads suspension containing ZnSO4 was added and the mixture was allowed to stand at room temperature for 15 minutes, followed by adsorption of the enzyme reaction product to the beads. After that, the radioactivity was measured using a liquid scintillation counter for a 96-well plate. The mixture without the enzyme preparation added but only the reaction buffer solution added is a blank, and the mixture with the enzyme preparation added and only dimethyl sulfoxide added instead of the test compound is a control.
In addition, the PDE4 inhibitory activity (concentration that inhibits PDE4 activity by 50%=concentration for the inhibition rate of 50% (IC50)) of the test compound was calculated from the inhibition curves based on the inhibition rates for various concentrations of the test compound.

| Compound | IC50 |
| --- | --- |
| C[S+]([O-])c1cc(-c2nccs2)c2oc(N3CC4CC(C3)N4)nc2c1 (centres unmarked) [Example 43, 2-(3,6-Diazabicyclo[3.1.1]heptan-3-yl)-5-(methylsulfinyl)-7-(thiazol-2-yl)benzo[d]oxazole] | < 100 nM |
| C[S+]([O-])c1cc(-c2nccs2)c2oc(N3CC4CCCC(C3)N4)nc2c1 (centres unmarked) [Example 44, 2-(3,9-Diazabicyclo[3.3.1]nonan-3-yl)-5-(methylsulfinyl)-7-(thiazol-2-yl)benzo[d]oxazole] | < 100 nM |
| CS(=O)(=O)c1cc(-c2nccs2)c2oc(N3CC4CCC(C3)N4)nc2c1 [Example 45, 2-(3,8-Diazabicyclo[3.2.1]octan-3-yl)-5-(methylsulfonyl)-7-(thiazol-2-yl)benzo[d]oxazole] | < 100 nM |
| CS(=O)(=O)c1cc(-c2nccs2)c2oc(N3CC4CC(C3)N4)nc2c1 [Example 46, 2-(3,6-Diazabicyclo[3.1.1]heptan-3-yl)-5-(methylsulfonyl)-7-(thiazol-2-yl)benzo[d]oxazole] | < 100 nM |
| CS(=O)(=O)c1cc(-c2nccs2)c2oc(N3CC4CCCC(C3)N4)nc2c1 [Example 47, 2-(3,9-Diazabicyclo[3.3.1]nonan-3-yl)-5-(methylsulfonyl)-7-(thiazol-2-yl)benzo[d]oxazole] | < 100 nM |
| CC(=O)Nc1cc(-c2nccs2)c2oc(N3CC4CCCC(C3)N4)nc2c1 [Example 48, N-(2-(3,9-diazabicyclo[3.3.1]nonan-3-yl)-7-(thiazol-2-yl)benzo[d]oxazol-5-yl)acetamide] | < 100 nM |
| CC(=O)Nc1cc(-c2nccs2)c2oc(N3CC4CC(C3)N4)nc2c1 [Example 49, N-(2-(3,6-diazabicyclo[3.1.1]heptan-3-yl)-7-(thiazol-2-yl)benzo[d]oxazol-5-yl)acetamide] | 100 to 1000 nM |
| CC(=O)Nc1cc(-c2nccs2)c2oc(N3CC4CCC(C3)N4)nc2c1 [Example 50, N-(2-(3,8-diazabicyclo[3.2.1]octan-3-yl)-7-(thiazol-2-yl)benzo[d]oxazol-5-yl)acetamide] | < 100 nM |
| FC(F)(F)c1cc(-c2nccs2)c2oc(N3CC4CCC(C3)N4)nc2c1 [Example 51, 2-(3,8-Diazabicyclo[3.2.1]octan-3-yl)-7-(thiazol-2-yl)-5-(trifluoromethyl)benzo[d]oxazole] | < 100 nM |
| FC(F)(F)c1cc(-c2nccs2)c2oc(N3CC4CC(C3)N4)nc2c1 [Example 52, 2-(3,6-Diazabicyclo[3.1.1]heptan-3-yl)-7-(thiazol-2-yl)-5-(trifluoromethyl)benzo[d]oxazole] | < 100 nM |
| FC(F)(F)c1cc(-c2nccs2)c2oc(N3CC4CCCC(C3)N4)nc2c1 [Example 53, 2-(3,9-Diazabicyclo[3.3.1]nonan-3-yl)-7-(thiazol-2-yl)-5-(trifluoromethyl)benzo[d]oxazole] | < 100 nM |
| FC(F)(F)Oc1cc(-c2nccs2)c2oc(N3CC4CCC(C3)N4)nc2c1 [Example 54, 2-(3,8-Diazabicyclo[3.2.1]octan-3-yl)-7-(thiazol-2-yl)-5-(trifluoromethoxy)benzo[d]oxazole] | < 100 nM |
| FC(F)(F)Oc1cc(-c2nccs2)c2oc(N3CC4CCCC(C3)N4)nc2c1 [Example 55, 2-(3,9-Diazabicyclo[3.3.1]nonan-3-yl)-7-(thiazol-2-yl)-5-(trifluoromethoxy)benzo[d]oxazole] | < 100 nM |
| FC(F)(F)Oc1cc(-c2nccs2)c2oc(N3CC4CC(C3)N4)nc2c1 [Example 56, 2-(3,6-Diazabicyclo[3.1.1]heptan-3-yl)-7-(thiazol-2-yl)-5-(trifluoromethoxy)benzo[d]oxazole] | < 100 nM |
| NS(=O)(=O)c1cc(-c2nccs2)c2oc(N3CC4CCC(C3)N4)nc2c1 [Example 57, 2-(3,8-Diazabicyclo[3.2.1]octan-3-yl)-7-(thiazol-2-yl)benzo[d]oxazole-5-sulfonamide] | < 100 nM |
| NS(=O)(=O)c1cc(-c2nccs2)c2oc(N3CC4CC(C3)N4)nc2c1 [Example 58, 2-(3,6-Diazabicyclo[3.1.1]heptan-3-yl)-7-(thiazol-2-yl)benzo[d]oxazole-5-sulfonamide] | < 100 nM |
| NS(=O)(=O)c1cc(-c2nccs2)c2oc(N3CC4CCCC(C3)N4)nc2c1 [Example 59, 2-(3,9-Diazabicyclo[3.3.1]nonan-3-yl)-7-(thiazol-2-yl)benzo[d]oxazole-5-sulfonamide] | < 100 nM |
| COc1cc(-c2nccs2)c2oc(N3CC4CCC(C3)N4)nc2c1 [Example 60, 2-(3,8-Diazabicyclo[3.2.1]octan-3-yl)-5-methoxy-7-(thiazol-2-yl)benzo[d]oxazole] | < 100 nM |
| COc1cc(-c2nccs2)c2oc(N3CC4CC(C3)N4)nc2c1 [Example 61, 2-(3,6-Diazabicyclo[3.1.1]heptan-3-yl)-5-methoxy-7-(thiazol-2-yl)benzo[d]oxazole] | < 100 nM |

| Compound | IC50 |
| --- | --- |
| COc1cc(-c2nccs2)c2oc(N3CC4CCCC(C3)N4)nc2c1 [Example 62, 2-(3,9-Diazabicyclo[3.3.1]nonan-3-yl)-5-methoxy-7-(thiazol-2-yl)benzo[d]oxazole] | < 100 nM |
| Oc1cc(-c2nccs2)c2oc(N3CC4CCC(C3)N4)nc2c1 [Example 63, 2-(3,8-Diazabicyclo[3.2.1]octan-3-yl)-7-(thiazol-2-yl)benzo[d]oxazol-5-ol] | < 100 nM |
| Oc1cc(-c2nccs2)c2oc(N3CC4CC(C3)N4)nc2c1 [Example 64, 2-(3,6-Diazabicyclo[3.1.1]heptan-3-yl)-7-(thiazol-2-yl)benzo[d]oxazol-5-ol] | < 100 nM |
| Oc1cc(-c2nccs2)c2oc(N3CC4CCCC(C3)N4)nc2c1 [Example 65, 2-(3,9-Diazabicyclo[3.3.1]nonan-3-yl)-7-(thiazol-2-yl)benzo[d]oxazol-5-ol] | < 100 nM |
| FC(F)(F)COc1cc(-c2nccs2)c2oc(N3CC4CCC(C3)N4)nc2c1 [Example 66, 2-(3,8-Diazabicyclo[3.2.1]octan-3-yl)-7-(thiazol-2-yl)-5-(2,2,2-trifluoroethoxy)benzo[d]oxazole] | < 100 nM |
| FC(F)(F)COc1cc(-c2nccs2)c2oc(N3CC4CC(C3)N4)nc2c1 [Example 67, 2-(3,6-Diazabicyclo[3.1.1]heptan-3-yl)-7-(thiazol-2-yl)-5-(2,2,2-trifluoroethoxy)benzo[d]oxazole] | < 100 nM |
| CC(C)Oc1cc(-c2nccs2)c2oc(N3CC4CCC(C3)N4)nc2c1 [Example 68, 2-(3,8-Diazabicyclo[3.2.1]octan-3-yl)-5-isopropoxy-7-(thiazol-2-yl)benzo[d]oxazole] | < 100 nM |
| COCCOc1cc(-c2nccs2)c2oc(N3CC4CCC(C3)N4)nc2c1 [Example 69, 2-(3,8-Diazabicyclo[3.2.1]octan-3-yl)-5-(2-methoxyethoxy)-7-(thiazol-2-yl)benzo[d]oxazole] | < 100 nM |
| c1csc(-c2cc(OCC3COC3)cc3nc(N4CC5CCC(C4)N5)oc23)n1 [Example 70, 2-(3,8-Diazabicyclo[3.2.1]octan-3-yl)-5-(oxetan-3-ylmethoxy)-7-(thiazol-2-yl)benzo[d]oxazole] | < 100 nM |
| OCC(CO)COc1cc(-c2nccs2)c2oc(N3CC4CCC(C3)N4)nc2c1 [Example 71, 2-(((2-(3,8-Diazabicyclo[3.2.1]octan-3-yl)-7-(thiazol-2-yl)benzo[d]oxazol-5-yl)oxy)methyl)propane-1,3-diol] | < 100 nM |
| C=CCOc1cc(-c2nccs2)c2oc(N3CC4CCC(C3)N4)nc2c1 [Example 72, 5-(Allyloxy)-2-(3,8-diazabicyclo[3.2.1]octan-3-yl)-7-(thiazol-2-yl)benzo[d]oxazole] | < 100 nM |
| N#CCOc1cc(-c2nccs2)c2oc(N3CC4CCC(C3)N4)nc2c1 [Example 73, 2-((2-(3,8-Diazabicyclo[3.2.1]octan-3-yl)-7-(thiazol-2-yl)benzo[d]oxazol-5-yl)oxy)acetonitrile] | < 100 nM |
| O=C(O)COc1cc(-c2nccs2)c2oc(N3CC4CCC(C3)N4)nc2c1 [Example 74, 2-((2-(3,8-Diazabicyclo[3.2.1]octan-3-yl)-7-(thiazol-2-yl)benzo[d]oxazol-5-yl)oxy)acetic acid] | < 100 nM |
| COc1ccc(-c2nccs2)c2oc(N3CC4CC(C3)N4)nc12 [Example 76, 2-(3,6-Diazabicyclo[3.1.1]heptan-3-yl)-4-methoxy-7-(thiazol-2-yl)benzo[d]oxazole] | < 100 nM |
| COc1ccc(-c2nccs2)c2oc(N3CC4CCCC(C3)N4)nc12 [Example 77, 2-(3,9-Diazabicyclo[3.3.1]nonan-3-yl)-4-methoxy-7-(thiazol-2-yl)benzo[d]oxazole] | < 100 nM |
| Oc1ccc(-c2nccs2)c2oc(N3CC4CCC(C3)N4)nc12 [Example 78, 2-(3,8-Diazabicyclo[3.2.1]octan-3-yl)-7-(thiazol-2-yl)benzo[d]oxazol-4-ol] | < 100 nM |
| Oc1ccc(-c2nccs2)c2oc(N3CC4CC(C3)N4)nc12 [Example 79, 2-(3,6-Diazabicyclo[3.1.1]heptan-3-yl)-7-(thiazol-2-yl)benzo[d]oxazol-4-ol] | < 100 nM |
| Oc1ccc(-c2nccs2)c2oc(N3CC4CCCC(C3)N4)nc12 [Example 80, 2-(3,9-Diazabicyclo[3.3.1]nonan-3-yl)-7-(thiazol-2-yl)benzo[d]oxazol-4-ol] | < 100 nM |
| c1csc(-c2ccc(OC3CCC3)c3nc(N4CC5CCC(C4)N5)oc23)n1 [Example 81, 2-(3,8-Diazabicyclo[3.2.1]octan-3-yl)-4-cyclobutoxy-7-(thiazol-2-yl)benzo[d]oxazole] | < 100 nM |
